Columns and labels:
[1] = tested on: ob/ob mice; conditions: cited from earlier work
[2] = tested on: ApoE KO mice; conditions: cited from earlier work
[3] = tested on: mice under HF diet; conditions: cited from earlier work
[4] = molecular target: human FABP4 (huFABP4) (Homo sapiens (Human), UniProt P15090); experiment: Tb TR-FRET assay, binding of Bodipy labeled fatty acid to His6 tagged huFABP4; conditions: 50 nM FABP protein, […] Bodipy labeled fatty acid; read-out: IC50 h-fabp4-ecoli-r
[5] = molecular target: human FABP5 (huFABP5) (Homo sapiens (Human), UniProt Q01469); experiment: Tb TR-FRET assay, binding of Bodipy labeled fatty acid to His6 tagged huFABP5; conditions: 50 nM FABP protein, […] Bodipy labeled fatty acid; read-out: IC50 h-fabp5-ecoli-r
Chain of human FABP5 (huFABP5) (Q01469 whole entry): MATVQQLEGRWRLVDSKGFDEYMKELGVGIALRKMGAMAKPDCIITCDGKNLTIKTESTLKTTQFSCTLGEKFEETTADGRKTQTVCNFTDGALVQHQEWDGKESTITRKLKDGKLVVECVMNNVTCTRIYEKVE

Chain of human FABP4 (huFABP4) (P15090 whole entry): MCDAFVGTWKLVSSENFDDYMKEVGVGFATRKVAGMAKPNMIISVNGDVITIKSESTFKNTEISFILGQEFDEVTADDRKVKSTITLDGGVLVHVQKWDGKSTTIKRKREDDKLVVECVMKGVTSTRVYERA

SMILES | IC50 [4] | IC50 [5] | further results
CCc1c(-c2ccccc2)c(-c2ccccc2)nn1-c1ccccc1-c1cccc(OCC(=O)O)c1 [BMS309403] | – | – | glucose uptake in muscle and adipose ([1]; clamp study in ob/ob mice): increased; hepatic glucose production ([1]; clamp study in ob/ob mice): reduction; body weight and energy consumption ([1]; ob/ob mice): no change; hepatic steatosis ([1]; ob/ob mice): reduction; atherosclerotic placques formation [2]: decrease
O=C(O)[C@H]1CCCN1C(=O)Nc1ccccc1Oc1ccccc1 [Compound 3] | – | – | insulin and glucose tolerance [3]: no improvement; plasma triglyceride and free fatty acid [3]: reduction
O=C(O)[C@H]1CCCN1C(=O)Nc1cc(Cl)ccc1-c1ccncc1 [Example 58, (R)-1-(5-chloro-2-(pyridin-4-yl)phenylcarbamoyl)pyrrolidine-2-carboxylic acid] | 2000 nM | > 50000 nM | –
O=C(O)[C@H]1CCCN1C(=O)Nc1cc(Cl)ccc1-c1ccc(Cl)cc1 [Example 59, (R)-1-(4,4′-dichlorobiphenyl-2-ylcarbamoyl)pyrrolidine-2-carboxylic acid] | 2080 nM | > 50000 nM | –
COc1ccc(-c2ccc(Cl)cc2NC(=O)N2CCC[C@@H]2C(=O)O)cc1 [Example 60, (R)-1-(4-chloro-4′-methoxybiphenyl-2-ylcarbamoyl)pyrrolidine-2-carboxylic acid] | 3450 nM | > 50000 nM | –
Cc1ccccc1-c1ccc(Cl)cc1NC(=O)N1CCC[C@@H]1C(=O)O [Example 61, (R)-1-(4-chloro-2′-methylbiphenyl-2-ylcarbamoyl)pyrrolidine-2-carboxylic acid] | 2750 nM | > 50000 nM | –
CCc1ccc(-c2ccccc2)c(NC(=O)N2CCC[C@@H]2C(=O)O)c1 [Example 62, (R)-1-(4-ethylbiphenyl-2-ylcarbamoyl)pyrrolidine-2-carboxylic acid] | 1860 nM | > 50000 nM | –
O=C(O)[C@H]1CCN1C(=O)Nc1cc(Cl)ccc1-c1ccc(F)cc1F [Example 63, (R)-1-(4-chloro-2′,4′-difluorobiphenyl-2-ylcarbamoyl)azetidine-2-carboxylic acid] | 30 nM | > 50000 nM | –
COc1cc(Cl)cc(NC(=O)N2CC[C@@H]2C(=O)O)c1-c1ccc(F)cc1 [Example 64, (R)-1-(4-chloro-4′-fluoro-6-methoxybiphenyl-2-ylcarbamoyl)azetidine-2-carboxylic acid] | 20 nM | 6660 nM | –

Source: patent US9708340B2, “Urea derivatives and their use as fatty-acid binding protein (FABP) inhibitors” (Hoffmann-La Roche Inc., priority 2013, dated 2017)
